# In paper PMC4212090, “The comprehensive analysis of DEG/ENaC subunits in Hydra reveals a large variety of peptide-gated channels, potentially involved in neuromuscular transmission” (BMC Biology, 2014):
# Where “and” joins values, the source holds several entries; their conditions need not be identical. Equal values may be shown once. Entries after “also recorded” stand apart in the source; their conditions may differ. Read-outs that look alike come from different tables or passages of the source.
# How the values were obtained:
# HyNaC2/3/5 [1] = biological target: T1, HyNaC2/3/5 (Hydra vulgaris (Hydra magnipapillata), UniProt A8DZR6+A8DZR7+D3UD58); experiment: Inhibition of HyNaC2/3/5 currents in Xenopus oocytes (TEVC); format: cell-based; conditions: read-out: IAmil/I, relative current remaining after block by 100 μM amiloride
# T1 sequence (A8DZR6 entry or part of it): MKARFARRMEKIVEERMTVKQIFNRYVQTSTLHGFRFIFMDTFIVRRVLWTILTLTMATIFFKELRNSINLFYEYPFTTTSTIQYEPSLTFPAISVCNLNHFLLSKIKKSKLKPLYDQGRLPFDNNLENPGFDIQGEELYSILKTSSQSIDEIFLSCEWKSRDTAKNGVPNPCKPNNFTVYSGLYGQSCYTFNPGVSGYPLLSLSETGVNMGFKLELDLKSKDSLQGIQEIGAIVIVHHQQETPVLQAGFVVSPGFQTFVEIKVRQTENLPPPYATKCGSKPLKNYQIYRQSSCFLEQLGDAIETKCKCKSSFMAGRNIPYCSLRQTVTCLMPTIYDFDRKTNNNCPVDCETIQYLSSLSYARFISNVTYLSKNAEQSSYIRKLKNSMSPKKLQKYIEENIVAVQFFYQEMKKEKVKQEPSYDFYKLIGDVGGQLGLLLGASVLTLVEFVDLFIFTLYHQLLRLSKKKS
# T1 sequence (D3UD58 entry or part of it): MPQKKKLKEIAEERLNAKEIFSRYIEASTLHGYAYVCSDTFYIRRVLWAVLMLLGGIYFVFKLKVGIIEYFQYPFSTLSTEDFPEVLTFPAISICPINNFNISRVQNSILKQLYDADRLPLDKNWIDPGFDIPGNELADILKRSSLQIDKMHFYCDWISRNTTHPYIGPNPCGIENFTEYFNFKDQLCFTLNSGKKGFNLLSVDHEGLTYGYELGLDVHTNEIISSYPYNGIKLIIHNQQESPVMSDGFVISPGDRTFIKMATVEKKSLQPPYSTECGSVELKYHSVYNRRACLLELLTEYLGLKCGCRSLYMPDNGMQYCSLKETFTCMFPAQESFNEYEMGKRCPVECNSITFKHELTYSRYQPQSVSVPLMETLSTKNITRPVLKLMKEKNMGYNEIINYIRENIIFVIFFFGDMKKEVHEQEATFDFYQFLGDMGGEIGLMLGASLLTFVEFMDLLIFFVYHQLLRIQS
# T1 sequence (A8DZR7 entry or part of it): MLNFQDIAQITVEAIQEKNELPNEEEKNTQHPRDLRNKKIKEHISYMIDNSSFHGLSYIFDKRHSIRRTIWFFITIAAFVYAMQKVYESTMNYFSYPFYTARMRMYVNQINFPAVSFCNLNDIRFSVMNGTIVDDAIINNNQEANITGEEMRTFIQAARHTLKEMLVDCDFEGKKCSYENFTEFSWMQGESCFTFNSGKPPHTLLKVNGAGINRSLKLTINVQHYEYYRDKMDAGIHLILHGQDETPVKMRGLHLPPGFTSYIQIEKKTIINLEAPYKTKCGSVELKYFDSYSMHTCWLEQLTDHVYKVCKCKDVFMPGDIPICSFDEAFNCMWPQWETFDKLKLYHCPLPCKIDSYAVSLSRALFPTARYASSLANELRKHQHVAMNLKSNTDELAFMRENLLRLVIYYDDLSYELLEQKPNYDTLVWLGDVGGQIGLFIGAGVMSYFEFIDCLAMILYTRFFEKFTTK
# Protocol: (§1) One of the hallmarks of DEG/ENaCs is the block by the diuretic amiloride.
# (§2) Figure 10 Diminazene is a potent inhibitor of HyNaCs. A) Current trace illustrating the concentration-dependent inhibition of HyNaC2/9/7 by diminazene. Block by 100 μM amiloride was used to compare the affinity for diminazene and amiloride. […] Dashed lines represent the zero current level. B) Concentration-response curves showing the concentration-dependent inhibition of HyNaCs by diminazene. HyNaCs, Hydra Na^+ channels.
# (§3) To study the biophysical properties of the new HyNaCs, cRNA of HyNaCs was synthesized in vitro (mMessage mMachine kit, Ambion, Austin, Texas, USA) and injected into Xenopus laevis oocytes of stage V and VI. […] Whole cell currents were recorded from defolliculated oocytes by two-electrode voltage-clamp (TEVC) using the amplifier TurboTec 03X (npi electronic GmbH, Tamm, Germany). […]
# (§4) EC50 values for Hydra-RFamides I and II as well as IC50 values for diminazene were determined by fits to the Hill equation using IGOR Pro (version 6.06, WaveMetrics, Inc.). Reversal potentials were defined as the first recorded data point, where currents reversed signs from negative to positive. […]
# HyNaC2/11/5 [2] = biological target: T2, HyNaC2/11/5 (Hydra vulgaris (Hydra magnipapillata), UniProt A0A0A0MP55+A8DZR6+D3UD58); experiment: Inhibition of HyNaC2/11/5 currents in Xenopus oocytes (TEVC); format: cell-based; conditions: read-out: IAmil/I, relative current remaining after block by 100 μM amiloride
# T2 sequence (A0A0A0MP55 entry or part of it): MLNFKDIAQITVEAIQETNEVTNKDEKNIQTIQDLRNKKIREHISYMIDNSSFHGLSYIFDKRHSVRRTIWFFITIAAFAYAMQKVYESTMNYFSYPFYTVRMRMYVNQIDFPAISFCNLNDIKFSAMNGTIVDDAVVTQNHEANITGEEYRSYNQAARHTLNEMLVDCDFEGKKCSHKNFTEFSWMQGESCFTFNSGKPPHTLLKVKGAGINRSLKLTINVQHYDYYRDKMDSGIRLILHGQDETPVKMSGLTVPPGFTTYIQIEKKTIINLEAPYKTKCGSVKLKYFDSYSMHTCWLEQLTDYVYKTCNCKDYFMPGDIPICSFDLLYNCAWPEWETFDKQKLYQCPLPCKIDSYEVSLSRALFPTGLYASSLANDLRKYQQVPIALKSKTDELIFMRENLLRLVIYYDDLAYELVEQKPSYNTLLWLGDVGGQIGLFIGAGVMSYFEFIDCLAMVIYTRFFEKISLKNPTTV
# T2 sequence (A8DZR6 entry or part of it): as the sequence (A8DZR6 entry or part of it) above
# T2 sequence (D3UD58 entry or part of it): as the sequence (D3UD58 entry or part of it) above
# Protocol: as §1, §2, §3, §4
# HyNaC2/3/6 [3] = biological target: T3, HyNaC2/3/6 (Hydra vulgaris (Hydra magnipapillata), UniProt A0A0A0MP54+A8DZR6+A8DZR7); experiment: Inhibition of HyNaC2/3/6 currents in Xenopus oocytes (TEVC); format: cell-based; conditions: read-out: IAmil/I, relative current remaining after block by 100 μM amiloride
# T3 sequence (A0A0A0MP54 entry or part of it): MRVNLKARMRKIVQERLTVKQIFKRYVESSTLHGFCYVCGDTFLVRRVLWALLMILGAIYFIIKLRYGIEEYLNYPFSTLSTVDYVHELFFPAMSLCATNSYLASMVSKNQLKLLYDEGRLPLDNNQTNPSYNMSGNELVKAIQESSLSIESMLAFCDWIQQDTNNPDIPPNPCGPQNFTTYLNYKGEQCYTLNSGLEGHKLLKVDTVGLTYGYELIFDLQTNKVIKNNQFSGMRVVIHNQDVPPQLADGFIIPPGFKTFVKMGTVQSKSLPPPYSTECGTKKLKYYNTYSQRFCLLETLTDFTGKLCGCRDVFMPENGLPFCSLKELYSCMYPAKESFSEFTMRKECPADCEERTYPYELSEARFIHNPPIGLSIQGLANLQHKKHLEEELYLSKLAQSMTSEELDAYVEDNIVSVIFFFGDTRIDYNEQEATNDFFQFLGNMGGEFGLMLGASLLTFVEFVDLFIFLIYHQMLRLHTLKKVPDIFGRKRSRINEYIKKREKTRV
# T3 sequence (A8DZR7 entry or part of it): as the sequence (A8DZR7 entry or part of it) above
# T3 sequence (A8DZR6 entry or part of it): as the sequence (A8DZR6 entry or part of it) above
# Protocol: as §1, §2, §3, §4
# HyNaC2/4/6 [4] = biological target: T4, HyNaC2/4/6 (Hydra vulgaris (Hydra magnipapillata), UniProt A0A0A0MP54+A8DZR6+A8DZR8); experiment: Inhibition of HyNaC2/4/6 currents in Xenopus oocytes (TEVC); format: cell-based; conditions: read-out: IAmil/I, relative current remaining after block by 100 μM amiloride
# T4 sequence (A8DZR8 entry or part of it): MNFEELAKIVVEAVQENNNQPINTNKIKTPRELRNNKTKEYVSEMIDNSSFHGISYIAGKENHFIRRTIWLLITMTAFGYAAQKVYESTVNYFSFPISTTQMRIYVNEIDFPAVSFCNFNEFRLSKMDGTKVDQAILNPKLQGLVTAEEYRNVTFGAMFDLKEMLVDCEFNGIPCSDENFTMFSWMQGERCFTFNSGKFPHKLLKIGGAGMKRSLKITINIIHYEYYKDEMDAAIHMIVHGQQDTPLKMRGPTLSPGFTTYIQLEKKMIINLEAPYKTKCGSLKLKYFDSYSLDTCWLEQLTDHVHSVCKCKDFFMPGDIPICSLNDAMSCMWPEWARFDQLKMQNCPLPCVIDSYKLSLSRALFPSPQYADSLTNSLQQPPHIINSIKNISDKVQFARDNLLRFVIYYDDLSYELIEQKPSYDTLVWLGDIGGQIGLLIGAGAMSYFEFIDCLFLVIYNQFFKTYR
# T4 sequence (A0A0A0MP54 entry or part of it): as the sequence (A0A0A0MP54 entry or part of it) above
# T4 sequence (A8DZR6 entry or part of it): as the sequence (A8DZR6 entry or part of it) above
# Protocol: as §1, §2, §3, §4
# HyNaC2/3/7 [5] = biological target: T5, HyNaC2/3/7 (Hydra vulgaris (Hydra magnipapillata), UniProt A0A0A0MP73+A8DZR6+A8DZR7); experiment: Inhibition of HyNaC2/3/7 currents in Xenopus oocytes (TEVC); format: cell-based; conditions: read-out: IAmil/I, relative current remaining after block by 100 μM amiloride
# T5 sequence (A8DZR7 entry or part of it): as the sequence (A8DZR7 entry or part of it) above
# T5 sequence (A0A0A0MP73 entry or part of it): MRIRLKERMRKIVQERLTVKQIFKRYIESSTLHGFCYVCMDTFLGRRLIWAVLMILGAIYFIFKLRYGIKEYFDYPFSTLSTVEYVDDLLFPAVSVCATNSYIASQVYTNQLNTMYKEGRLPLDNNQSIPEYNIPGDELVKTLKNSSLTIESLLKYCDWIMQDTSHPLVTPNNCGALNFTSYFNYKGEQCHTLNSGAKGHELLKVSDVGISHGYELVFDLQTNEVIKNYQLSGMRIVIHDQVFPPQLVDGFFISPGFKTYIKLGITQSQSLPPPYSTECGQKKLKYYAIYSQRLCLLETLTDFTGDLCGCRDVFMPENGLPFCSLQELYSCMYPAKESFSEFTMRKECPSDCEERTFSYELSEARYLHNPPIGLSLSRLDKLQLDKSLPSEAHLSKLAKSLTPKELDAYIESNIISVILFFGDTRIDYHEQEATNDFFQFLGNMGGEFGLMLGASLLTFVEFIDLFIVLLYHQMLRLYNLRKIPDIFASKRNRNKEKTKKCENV
# T5 sequence (A8DZR6 entry or part of it): as the sequence (A8DZR6 entry or part of it) above
# Protocol: as §1, §2, §3, §4
# HyNaC2/9/7 [6] = biological target: T6, HyNaC2/9/7 (Hydra vulgaris (Hydra magnipapillata), UniProt A0A0A0MP48+A0A0A0MP73+A8DZR6); experiment: Inhibition of HyNaC2/9/7 currents in Xenopus oocytes (TEVC); format: cell-based; conditions: read-out: IAmil/I, relative current remaining after block by 100 μM amiloride
# T6 sequence (A0A0A0MP48 entry or part of it): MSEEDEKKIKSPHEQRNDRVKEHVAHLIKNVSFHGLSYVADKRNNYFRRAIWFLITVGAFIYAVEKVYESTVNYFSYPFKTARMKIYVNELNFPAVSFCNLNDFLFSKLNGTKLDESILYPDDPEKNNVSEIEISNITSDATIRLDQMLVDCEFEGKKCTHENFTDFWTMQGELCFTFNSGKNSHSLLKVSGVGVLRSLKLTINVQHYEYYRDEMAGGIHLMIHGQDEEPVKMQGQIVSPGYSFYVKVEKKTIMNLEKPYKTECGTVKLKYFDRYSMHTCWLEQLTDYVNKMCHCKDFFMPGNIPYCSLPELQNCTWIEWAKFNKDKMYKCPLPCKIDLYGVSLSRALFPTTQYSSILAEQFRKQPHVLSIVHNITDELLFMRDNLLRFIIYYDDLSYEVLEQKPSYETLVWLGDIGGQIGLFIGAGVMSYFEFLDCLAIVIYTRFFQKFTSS
# T6 sequence (A8DZR6 entry or part of it): as the sequence (A8DZR6 entry or part of it) above
# T6 sequence (A0A0A0MP73 entry or part of it): as the sequence (A0A0A0MP73 entry or part of it) above
# Protocol: as §1, §2, §3, §4
# HyNaC2/10/7 [7] = biological target: T7, HyNaC2/10/7 (Hydra vulgaris (Hydra magnipapillata), UniProt A0A0A0MP61+A0A0A0MP73+A8DZR6); experiment: Inhibition of HyNaC2/10/7 currents in Xenopus oocytes (TEVC); format: cell-based; conditions: read-out: IAmil/I, relative current remaining after block by 100 μM amiloride
# T7 sequence (A0A0A0MP61 entry or part of it): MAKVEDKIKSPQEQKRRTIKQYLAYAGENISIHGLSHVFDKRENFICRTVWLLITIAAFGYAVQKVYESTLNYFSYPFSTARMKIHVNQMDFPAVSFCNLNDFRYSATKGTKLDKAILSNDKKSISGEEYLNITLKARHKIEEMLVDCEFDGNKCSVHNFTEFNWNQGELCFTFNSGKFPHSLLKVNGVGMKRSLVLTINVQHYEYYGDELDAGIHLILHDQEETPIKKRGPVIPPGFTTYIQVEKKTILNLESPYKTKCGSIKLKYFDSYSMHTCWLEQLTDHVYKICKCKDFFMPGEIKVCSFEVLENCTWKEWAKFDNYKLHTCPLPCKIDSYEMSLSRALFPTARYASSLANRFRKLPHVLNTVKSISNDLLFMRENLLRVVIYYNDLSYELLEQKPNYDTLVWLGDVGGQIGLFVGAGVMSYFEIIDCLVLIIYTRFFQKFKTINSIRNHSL
# T7 sequence (A0A0A0MP73 entry or part of it): as the sequence (A0A0A0MP73 entry or part of it) above
# T7 sequence (A8DZR6 entry or part of it): as the sequence (A8DZR6 entry or part of it) above
# Protocol: as §1, §2, §3, §4
# HyNaC2/3/5 [8] = biological target: T1, HyNaC2/3/5; design: method as in PMID 20159980; conditions: ref [4], read-out: IC50 (apparent amiloride affinity); cited from earlier work
# Hydra magnipapillata = test system: Hydra magnipapillata; design: method as in PMID 20159980; conditions: 100 μM amiloride; ref [4]; cited from earlier work
# HyNaC2/3/5 [9] = biological target: T1, HyNaC2/3/5; experiment: Activation of HyNaC2/3/5 expressed in Xenopus oocytes by Hydra-RFamides (TEVC); format: cell-based
# Protocol: (§5) To study the biophysical properties of the new HyNaCs, cRNA of HyNaCs was synthesized in vitro (mMessage mMachine kit, Ambion, Austin, Texas, USA) and injected into Xenopus laevis oocytes of stage V and VI. After injection, oocytes were incubated for one to two days at 19°C in oocyte Ringer’s solution 2 (OR-2), which contained (in mM): 82.5 NaCl, 2.5 KCl, 1.0 Na2HPO4, 1.0 MgCl2, 1.0 CaCl2, 5.0 HEPES, 0.5 g/l PVP, 1,000 U/l penicillin and 10 mg/l streptomycin, NaOH was used to adjust pH to 7.3. Whole cell currents were recorded from defolliculated oocytes by two-electrode voltage-clamp (TEVC) using the amplifier TurboTec 03X (npi electronic GmbH, Tamm, Germany). Standard bath solution (in mM: 140 NaCl, 10 HEPES, 1.8 CaCl2 and 1.0 MgCl2. NaOH was used to adjust pH to 7.4.) was exchanged by a pump driven system combined with the oocyte testing carousel (OTC), which was controlled by the interface OTC-20 [53]. To control the OTC-20 and to record the data to the hard drive, the software CellWorks (version 5.1.1; npi electronic GmbH, Tamm, Germany) was used. Data were sampled at 0.1 to 1 kHz and filtered at 20 Hz. HyNaCs are permeable for Ca^2+, activating an endogenous CaCC [40]. Therefore, unless otherwise indicated, oocytes were injected with 50 nl of 20 mM EGTA 30 to 180 minutes before measurements. Reversal potentials and Ca^2+ permeabilities of HyNaCs were studied as described previously.
# (§6) EC50 values for Hydra-RFamides I and II as well as IC50 values for diminazene were determined by fits to the Hill equation using IGOR Pro (version 6.06, WaveMetrics, Inc.). Reversal potentials were defined as the first recorded data point, where currents reversed signs from negative to positive. For I/V relationships, voltage ramps in the absence of the agonist were used to subtract background conductances. Results are reported as mean ± standard error.
# HyNaC2/11/5 [10] = biological target: T2, HyNaC2/11/5; experiment: Activation of HyNaC2/11/5 expressed in Xenopus oocytes by Hydra-RFamides (TEVC); format: cell-based
# Protocol: as §5, §6
# HyNaC2/3/6 [11] = biological target: T3, HyNaC2/3/6; experiment: Activation of HyNaC2/3/6 expressed in Xenopus oocytes by Hydra-RFamides (TEVC); format: cell-based
# Protocol: as §5, §6
# HyNaC2/4/6 [12] = biological target: T4, HyNaC2/4/6; experiment: Activation of HyNaC2/4/6 expressed in Xenopus oocytes by Hydra-RFamides (TEVC); format: cell-based
# Protocol: as §5, §6
# HyNaC2/3/7 [13] = biological target: T5, HyNaC2/3/7; experiment: Activation of HyNaC2/3/7 expressed in Xenopus oocytes by Hydra-RFamides (TEVC); format: cell-based
# Protocol: as §5, §6
# HyNaC2/9/7 [14] = biological target: T6, HyNaC2/9/7; experiment: Activation of HyNaC2/9/7 expressed in Xenopus oocytes by Hydra-RFamides (TEVC); format: cell-based
# Protocol: as §5, §6
# HyNaC2/10/7 [15] = biological target: T7, HyNaC2/10/7; experiment: Activation of HyNaC2/10/7 expressed in Xenopus oocytes by Hydra-RFamides (TEVC); format: cell-based; conditions: EGTA-injected oocytes, saturating ligand concentration not reached
# Protocol: as §5, §6
# [16] = test system: functional HyNaC heterotrimer; experiment: Screen of functional HyNaC heterotrimers in Xenopus oocytes for activation by Hydra-RFamides; format: cell-based, Hydra magnipapillata; conditions: 5 μM peptide; Xenopus oocytes
# Protocol: We tested the function of the new HyNaCs by co-expression of different HyNaC subunit combinations in Xenopus oocytes. We screened for functional subunit combinations by application of 5 μM Hydra-RFamide I, a potent agonist of HyNaC2/3/5 [4]. When we expressed an individual HyNaC subunit we could never elicit currents. […] When HyNaC2 was part of the injected cRNA pool, however, Hydra-RFamide I elicited currents. Simultaneous expression of HyNaC2 with a single other HyNaC resulted only in a functional channel when we co-expressed HyNaC2 and HyNaC3; it was already known that HyNaC2 and HyNaC3 form a low-affinity peptide-gated channel.
# Dashed line represents the zero current level. Amino acid sequences of Hydra-RFamides I to V are shown at the bottom. HyNaC, Hydra Na^+ channel.
# Since Hydra-RFamide II had been shown previously to activate HyNaC2/3/5 [4], we tested Hydra-RFamides II to V for channel activation.
# as §5
# HyNaC2/9/5 = experiment: Activation of HyNaC2/9/5 in Xenopus oocytes by Hydra-RFamides; format: cell-based, Hydra magnipapillata; conditions: channel opened by lowering extracellular Ca2+
# Protocol: (§7) The contribution of the distantly related HyNaC12 to peptide-gated channels was assessed by co-expression with HyNaC2 and one or several other HyNaCs (HyNaC3 to HyNaC11). In addition, HyNaC12 was co-expressed with pools of different HyNaCs without HyNaC2. […] In fact, all HyNaCs that were activated by Hydra-RFamide I were opened by lowering the extracellular Ca^2+ concentration ([Ca^2+]e) to 10 nM (Figure 4). […] Some DEG/ENaCs are constitutively opened by an amino acid substitution at the so-called DEG-position. To further investigate whether HyNaC12 forms a functional homomeric channel, we substituted a glycine at the DEG-position by threonine (G436T), which has a large side chain. This substitution did, however, not constitutively open HyNaC12 (data not shown). This applies also for the co-expression of HyNaC12-G436T together with pools of different wild-type HyNaC subunits, leaving the function of HyNaC12 unknown.
# as §3
# [17] = test system: HyNaCs containing HyNaC12; experiment: Activation of HyNaC12-containing subunit combinations in Xenopus oocytes by Hydra-RFamides; format: cell-based, Hydra magnipapillata; conditions: HyNaC12 co-expressed with HyNaC2 and other HyNaCs or pools; 5 μM peptide
# Protocol: as §7, with “unknown. […]” for “unknown.”
# as §3
# HyNaC2/3/5 [18] = biological target: T1, HyNaC2/3/5; design: method as in PMID 20159980; conditions: for comparison, ref [4], read-out: EC50 for Hydra-RFamide I; cited from earlier work
# [19] = EGTA-injected oocytes, read-out: EC50 RFa I
# [20] = Hydra-RFamide I concentration-response
molecule,measurement,setting,value
N=C(N)NC(=O)c1nc(Cl)c(N)nc1N [amiloride],remaining activity at 100 µM,HyNaC2/3/5 [1],50 ± 10%
same,remaining activity at 100 µM,HyNaC2/11/5 [2],70 ± 10%
same,remaining activity at 100 µM,HyNaC2/3/6 [3],30 ± 10%
same,remaining activity at 100 µM,HyNaC2/4/6 [4],30 ± 10%
same,remaining activity at 100 µM,HyNaC2/3/7 [5],30 ± 10%
same,remaining activity at 100 µM,HyNaC2/9/7 [6],30 ± 10%
same,remaining activity at 100 µM,HyNaC2/10/7 [7],80 ± 10%
same,IC50,HyNaC2/3/5 [8],~120 µM
same,feeding reaction of living Hydra,Hydra magnipapillata,delays the feeding reaction
Hydra-RFamide I,"Imax RFa I, current amplitude at maximal concentration of Hydra-RFamide I",HyNaC2/3/5 [9]; EGTA-injected oocytes,9.2 ± 1.9 μA and 9.2 ± 1.9 (9) μA
same,EC50,HyNaC2/3/5 [9]; [19],3.48 ± 0.55 µM
same,Hill Coeff.,HyNaC2/3/5 [9]; [20],1.2 ± 0.1
same,EC50,HyNaC2/11/5 [10]; [19],13.8 ± 1.9 µM
same,Hill Coeff.,HyNaC2/11/5 [10]; [20],0.9 ± 0.1
same,EC50,HyNaC2/3/6 [11]; EGTA-injected oocytes,0.29 ± 0.06 µM
same,"Imax RFa I, current amplitude at maximal concentration of Hydra-RFamide I",HyNaC2/3/6 [11]; EGTA-injected oocytes,15.7 ± 3.2 μA and 15.7 ± 3.2 (10) μA
same,Hill Coeff.,HyNaC2/3/6 [11]; [20],1.2 ± 0.2
same,EC50,HyNaC2/4/6 [12]; EGTA-injected oocytes,0.7 ± 0.08 µM
same,Hill Coeff.,HyNaC2/4/6 [12]; [20],1.3 ± 0.1
same,EC50,HyNaC2/3/7 [13]; EGTA-injected oocytes,0.19 ± 0.04 µM
same,"Imax RFa I, current amplitude at maximal concentration of Hydra-RFamide I",HyNaC2/3/7 [13]; EGTA-injected oocytes,19.6 ± 1.8 μA and 19.6 ± 1.8 (14) μA
same,Hill Coeff.,HyNaC2/3/7 [13]; [20],1.6 ± 0.4
same,EC50,HyNaC2/9/7 [14]; [19],0.04 ± 0.01 µM
same,Hill Coeff.,HyNaC2/9/7 [14]; [20],1.5 ± 0.3
same,EC50,HyNaC2/10/7 [15],> 30 µM
same,EC50 RFa I,HyNaC2/10/7 [15],too low to calculate the EC50 precisely
same,activation of functional HyNaC heterotrimers (current elicited),[16],activation of HyNaCs
same,activation of HyNaC2/9/5,HyNaC2/9/5,insensitive; also recorded: not activated
same,activation of channels containing HyNaC12,[17],In no case did this result in channels that could be activated
same,EC50,HyNaC2/3/5 [18],~5 µM
